Experimental data from patent publication US7683079B2, “4-aminopiperidine derivatives” (Hoffmann-La Roche Inc., priority 2004, dated 2010).

Molecular target: T1, human DPP-IV (Homo sapiens, UniProt P27487)
T1 construct: made in house; host or cells: Pichia pastoris
Test: DPP-IV activity assay (fluorometric/colorimetric), IC50 determination
Format: biochemical
Details: natural human DPP-IV from human plasma pool or recombinant human DPP-IV; 37° C., pH 7.8; substrate 50 μM (fluorogenic) or 200 μM (colorimetric)
Procedure: Activity of DPP-IV inhibitors are tested with natural human DPP-IV derived from a human plasma pool or with recombinant human DPP-IV. […] In the calorimetric DPP-IV assay 5 to 10 μl human plasma and in the fluorometric assay 1.0 μl of human plasma in a total assay volume of 100 μl is used as an enzyme source. […] Human DPP-IV is expressed and purified from the culture medium using conventional column chromatography including size exclusion and anion and cation chromatography.
A 20 mM stock solution in 10% DMF/H2O is stored at −20° C. until use.
A 10 mM stock solution in 10% MeOH/H2O is stored at −20° C. until use.
Fluorescence is detected in a Perkin Elmer Luminescence Spectrometer LS 50B at an excitation wavelength of 400 nm and an emission wavelength of 505 nm continuously every 15 seconds for 10 to 30 minutes. Initial rate constants are calculated by best fit linear regression.
Initial rate constants are calculated by best fit linear regression.
DPP-IV activity assays are performed in 96 well plates at 37° C. in a total assay volume of 100 μl. The assay buffer consists of 50 mM Tris/HCl pH 7.8 containing 0.1 mg/ml BSA and 100 mM NaCl. […] Enzyme reactions are started with substrate application followed by immediate mixing.

T1 sequence (P27487 31-766): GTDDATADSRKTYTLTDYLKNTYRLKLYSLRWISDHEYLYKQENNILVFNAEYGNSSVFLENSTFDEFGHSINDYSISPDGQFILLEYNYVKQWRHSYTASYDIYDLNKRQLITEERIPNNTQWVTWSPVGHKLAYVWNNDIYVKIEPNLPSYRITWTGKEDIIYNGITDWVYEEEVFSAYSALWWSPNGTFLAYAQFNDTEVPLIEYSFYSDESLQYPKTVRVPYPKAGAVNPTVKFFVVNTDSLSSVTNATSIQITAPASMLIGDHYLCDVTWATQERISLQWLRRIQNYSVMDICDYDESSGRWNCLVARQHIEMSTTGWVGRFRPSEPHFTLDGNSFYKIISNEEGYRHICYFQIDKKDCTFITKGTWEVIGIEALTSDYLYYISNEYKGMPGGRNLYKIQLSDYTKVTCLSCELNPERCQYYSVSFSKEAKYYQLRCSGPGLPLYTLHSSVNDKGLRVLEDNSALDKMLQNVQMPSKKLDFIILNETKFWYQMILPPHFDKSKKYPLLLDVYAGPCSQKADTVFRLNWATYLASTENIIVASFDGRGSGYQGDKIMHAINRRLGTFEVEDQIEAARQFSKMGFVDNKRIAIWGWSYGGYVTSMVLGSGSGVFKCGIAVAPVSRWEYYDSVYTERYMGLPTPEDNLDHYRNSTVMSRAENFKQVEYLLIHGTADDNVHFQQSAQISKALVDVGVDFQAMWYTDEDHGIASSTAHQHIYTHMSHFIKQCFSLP

IC50 [nM] | SMILES
820 | COc1ccc(N2CC[C@@H](N)[C@@H](C(=O)N3CCSC3)C2)cc1OC (racemic) [Example 40, 3 [(3S,4R) and (3R,4S)-4-Amino-1-(3,4-dimethoxy-phenyl)-piperidine-3-yl]-thiazolidin-3-yl-methanone]
290 | N[C@@H]1CCN(CCc2ccccn2)C[C@@H]1C(=O)N1CCSC1 [Example 36]

SMILES | IC50 [nM]
NC1CCN(CCc2ccccc2)CC1c1cccc(Cl)c1 (stereo not drawn) [Example 23, 3-(3-Chloro-phenyl)-1-phenethyl-piperidine-4-ylamine] | 160
